Entries after “also recorded” stand apart in the source; their conditions may differ. Residues, ends and D or L forms follow the SMILES beside them. *: point of attachment. Palmitoyl = CCCCCCCCCCCCCCCC(=O)*
Columns and labels:
wild type Drosophila = test: Egg-to-adult viability test of wild-type flies; assay type: in vivo; settings: 10 or 50 μM in fly food, 21.5° C.
Protocol: Eggs laid within 5 hr were collected and cultured in fly food containing 10 or 50 μM of respective peptides at 21.5° C. Viability from egg to adult was calculated as the number of adult flies collected divided by the number of eggs examined. Data are expressed as mean±S.E.M. for 3 independent experiments. NS indicates no significance.
Flies were raised at 21.5° C. on cornmeal medium supplemented with dry yeast. Fly lines bearing UAS-DsRedCAG0 and UAS-DsRedCAG100 were kind gifts of Professor Nancy Bonini (University of Pennsylvania, USA). The gmr-GAL4 fly line was obtained from Bloomington Drosophila Stock Center. For pseudopupil assay, third instar larvae were fed with various amount of respective peptides dissolved in 2% sucrose solution for 2 hr and then continued to culture in standard fly food at 21.5° C.^38. Pseudopupil assay was performed on 12 day-old adult flies as mentioned previously^39. Images were captured by SPOT Insight CCD camera controlled by the SPOT Advanced software (Diagnostic instruments Inc.). Image processing was performed using the Adobe Photoshop CS software (Adobe). Each experiment was repeated at least 3 times (n=10 fly heads), and consistent results were obtained. […] Viability from egg-to-adult was calculated as the number of adult flies collected divided by the number of eggs examined. […]

MJDCAG78 RNA = test: Isothermal titration calorimetry binding assay, expanded MJDCAG78 RNA; settings: ITC at 25° C.; 0.7 mM peptide titrated into 0.5 μM MJDCAG78 RNA; one binding site model; mean ± S.E.M.
Protocol: (§1) Experiments were carried out using a MicroCal iTC200 isothermal titration calorimeter (GE Healthcare) at 25° C. Data were analyzed using the Origin® scientific plotting software version 7 (Microcal Software Inc.). All RNAs and peptides were dissolved in binding buffer (20 mM MOPS, pH 7.0; 300 mM NaCl) and 0.7 mM of peptide was titrated into 0.5 μM of RNA for each experiment. The concentration of RNA was estimated with appropriate extinction coefficients at 260 nm on a Nanodrop 2000 (Thermo Scientific). A reference power of 8 μcal/s was used with an initial 0.5 μl of injection of peptide followed by 2 μl for all subsequent titrations points with a 60 sec initial equilibrium delay and 150 sec pause between injections. The samples were stirred at a speed of 1000 rpm throughout the experiment. The thermal titration data were fitted to the ‘one binding site model’ to determine the dissociation constant (KD). Each experiment was repeated at least 3 times with consistent results obtained.

pre-rRNA = test: Real-time PCR of pre-rRNA level in DsRedCAG100 flies; assay type: in vivo, Drosophila; settings: 1 μM
Protocol: Ribosomal RNA (rRNA) synthesis occurs within the nucleolus^15. It was previously shown that expanded CAG RNA induces nucleolar stress by preventing the nucleolar protein NCL from binding to the upstream control element of the rRNA promoter, leading to the downregulation of rRNA transcription^13. To investigate whether P3V8 suppressed neurotoxicity by alleviating expanded CAG RNA-induced nucleolar stress in vivo, the expression levels of pre-rRNA in were measured DsRedCAG100 flies treated with the peptide. […] This confirms that P3V8 subdued polyQ neurodegeneration in vivo by effective mitigation of the expanded CAG RNA-induced nucleolar stress.
RNA was extracted from cells or ten 12 day-old adult fly heads by Trizol reagent (Life Technologies), and 1 μg of purified RNA was then used for reverse-transcription using the ImPromII™ Reverse Transcription System (Promega). Random hexamer (Roche) was used as primers in reverse transcription. Taqman gene expression assays were performed on an ABI 7500 Real-time PCR system and data were analyzed as previously described^13. The following probes were used: pre-45s rRNA (Assay ID: AILJIZM), pre-rRNA (Assay ID: AIMSG5U), Drosophila GAPDH (Assay ID: Dm01841186) and human actin (Assay ID: Hs99999903_m1). Each experiment was repeated at least 3 times.

MJDCAA/G78 RNA = test: Isothermal titration calorimetry binding assay, expanded MJDCAA/G78 RNA
Protocol: (§2) To test whether P3V8 specifically targets expanded CAG RNA, ITC experiments were performed using unexpanded CAG RNA (MJDCAG27 RNA), expanded CAG RNA (MJDCAG78 RNA), and expanded CAA/G RNA (MJDCAA/G78 RNA), respectively, to investigate whether the binding of P3V8 is RNA expansion-dependent and sequence-dependent (Table 6).
as §1

MJDCAG27 RNA = test: Isothermal titration calorimetry binding assay, unexpanded MJDCAG27 RNA
Protocol: as §2, §1

Q: With CCCCCCCCCCCCCCCC(=O)N[C@@H](CC(=O)O)C(=O)NCC(=O)N[C@@H](CCCCN)C(=O)N[C@@H](CO)C(=O)N[C@@H](CCCCN)C(=O)NCC(=O)N[C@H](C(=O)N[C@@H](C)C(=O)N[C@@H](Cc1ccc(O)cc1)C(=O)N[C@H](C(=O)N[C@@H](CCC(=O)O)C(=O)N[C@@H](Cc1ccccc1)C(=O)N[C@@H](CCCCN)C(N)=O)[C@@H](C)CC)[C@@H](C)CC [L1P3V8] (Palmitoyl-DGKSKGIAYIEFK-NH2) as the molecule, how does the egg-to-adult viability (wild type Drosophila) read?
A: no obvious alteration; also recorded: did not affect the viability

Q: What does the source list for Ac-DGKSKGIAYIEFK-NH2 [P3V8]?
A: Kd (MJDCAG78 RNA): 0.33 µM; pre-rRNA level (pre-rRNA): fully recovered to the DsRedCAG0 control level; Kd (MJDCAA/G78 RNA; ITC, 0.7 mM peptide into 0.5 μM MJDCAA/G78 RNA, mean ± S.E.M.): 2.94 ± 0.96 µM; lower affinity than for expanded CAG RNA (MJDCAA/G78 RNA; expanded CAA/G RNA vs expanded MJDCAG78 RNA): 6-9 fold; Kd (MJDCAG27 RNA; ITC, 0.7 mM peptide into 0.5 μM MJDCAG27 RNA, mean ± S.E.M.): 2.19 ± 0.27 µM; lower affinity than for expanded CAG RNA (MJDCAG27 RNA; unexpanded RNA vs expanded MJDCAG78 RNA): 6-9 fold

Reference: patent US10570177B2, “P3 peptidylic inhibitors for treating CAG-repeat RNA toxicity in polyglutamine diseases” (The Chinese University of Hong Kong, priority 2017, dated 2020)
